Where two headings read alike, the source gives them in different places.
Tests used:
rCYP1A2 = target: T1, rCYP1A2 (Homo sapiens, UniProt P05177); assay: luminogenic P450-Glo CYP450 inhibition assay, rCYP1A2; conditions: three independent experiments
T1 sequence (P05177 1-516): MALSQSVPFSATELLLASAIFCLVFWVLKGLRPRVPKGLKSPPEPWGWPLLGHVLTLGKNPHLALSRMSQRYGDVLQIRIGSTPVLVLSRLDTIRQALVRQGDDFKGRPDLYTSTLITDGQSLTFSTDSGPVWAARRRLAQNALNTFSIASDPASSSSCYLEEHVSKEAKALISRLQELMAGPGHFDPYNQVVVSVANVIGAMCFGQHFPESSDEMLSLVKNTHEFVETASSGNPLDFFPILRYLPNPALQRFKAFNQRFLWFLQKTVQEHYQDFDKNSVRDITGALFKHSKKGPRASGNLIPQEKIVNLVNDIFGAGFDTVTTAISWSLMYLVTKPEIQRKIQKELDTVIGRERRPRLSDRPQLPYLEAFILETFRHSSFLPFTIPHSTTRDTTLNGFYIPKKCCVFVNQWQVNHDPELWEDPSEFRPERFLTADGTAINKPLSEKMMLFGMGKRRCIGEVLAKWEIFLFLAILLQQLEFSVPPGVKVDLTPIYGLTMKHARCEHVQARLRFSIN
Description: (§1) The luminescent cytochrome P450 assay was used to determine CYP450-mediated (CYP1A2, 2C9, 2C19, 2D6, and 3A4) metabolism of atractylodin and β-eudesmol. The assay consisted of each recombinant human CYP450 (rCYP450), control membranes lacking P450 activity, a luminogenic CYP450 substrate (luciferin-ME substrate for rCYP1A2, luciferin-H substrate for rCYP2C9, luciferin-H EGE substrate for rCYP2C19, luciferin-ME EGE substrate for rCYP2D6, and luciferin-IPA substrate for rCYP3A4), KPO4 buffer, luciferin free water, NADPH regeneration system, and a luciferin detection reagent. The rCYP450 enzymes were generated from a baculovirus-infected insect cell expression system. The concentrations of the recombinant CYPs used were 0.5 (rCYP1A2 and rCYP2C9), 0.25 (rCYP2C19 and rCYP2D6) or 0.2 (rCYP3A4) pmol (0.5μL) per reaction. […] A luciferin product was produced after adding 25 µL of NADPH Regeneration System (solution A, solution B, and luciferin-free water) and incubated at 37 °C for 10 (rCYP1A2 and rCYP3A4), 20 (rCYP2C19 and rCYP2C9) or 30 (rCYP2D6) minutes. The reaction was stopped and converted to a luminescent signal after adding Luciferin Detection Reagent (50 µL) and incubated at 25 °C for 20 min. The luminescence signals obtained were determined using a Varioskan® Flash microplate reader (Waltham, MA, USA). The magnitude of luminescence in all of the samples represented CYP450 activity. […] All stock solutions were diluted with luciferin-free water until the final concentration of organic solvent was less than 0.25% (v/v) of the total reaction. The concentration range of atractylodin and β-eudesmol used were 2.74–686 µM and 2.25–562 µM, respectively. […] The concentration that inhibited the activity of each rCYP450 by 50% (IC50) was calculated using Calcusyn software (Cambridge, UK). Data are reported as the median (range) of the three independent experiments.

rCYP2C9 = rCYP2C9 (Homo sapiens, UniProt P11712); assay: luminogenic P450-Glo CYP450 inhibition assay, rCYP2C9; conditions: three independent experiments
Description: as §1

rCYP2D6 = rCYP2D6 (Homo sapiens, UniProt P10635); assay: luminogenic P450-Glo CYP450 inhibition assay, rCYP2D6; conditions: three independent experiments
Description: as §1

rCYP3A4 = rCYP3A4 (Homo sapiens, UniProt P08684); assay: luminogenic P450-Glo CYP450 inhibition assay, rCYP3A4; conditions: three independent experiments
Description: as §1

mCYP1A2 mRNA = assay: ex vivo mCYP1A2 mRNA expression in mouse livers (real-time PCR); conditions: male ICR mice, daily oral 100 mg/kg body weight, vs control
Description: Eight-week-old male ICR (Imprinting Control Region) mice weighing 35–40 g were used to investigate the modulatory effects of atractylodin and β-eudesmol on mCYP1A2 and mCYP3A11. The study protocol was approved by the Ethics Committee for Animal Research at Thammasat University (protocol number 016/2020). All animals were obtained from Nomura Siam International Co., Ltd. (Bangkok, Thailand). The animals were acclimatized for one week before the experiments. A total of 36 mice were allocated to three groups (i) control group (3 mice), (ii) atractylodin-treated group, and (iii) β-eudesmol-treated group. For atractylodin and β-eudesmol-treated groups, animals were fed with 100 mg/kg body weight of each compound for 1, 7, 14, and 21 (3 mice for each dose). Experiments were performed under the guidelines for the care and use of laboratory animals in a controlled environment of 12 h dark/light cycle, temperature 22 ± 2 °C, and relative humidity 30–70% at the Thammasat University Animal Center. Animals were observed daily for changes in signs and symptoms by a veterinarian. Mice were allowed access to the food pellets and water ad libitum.
Total mRNA was extracted from mouse livers using Trizol according to the manufacturer’s instructions. The concentration of mRNA was quantified by a nanodrop spectrophotometer. The First-Strand cDNA Synthesis Kit was used to generate cDNA from RNA. The CFX96 Touch Real-Time PCR Detection System was used to determine the expressions of mCYP1A2, mCYP3A11, and β-actin genes using the iTaq Universal SYBR Green Supermix. The PCR condition and the delta-delta Ct calculation were according to the previously described article. All primers used in this study were synthesized by Gibthai Co. Ltd. (Bangkok, Thailand).

Chain of rCYP2C9 (P11712 whole entry): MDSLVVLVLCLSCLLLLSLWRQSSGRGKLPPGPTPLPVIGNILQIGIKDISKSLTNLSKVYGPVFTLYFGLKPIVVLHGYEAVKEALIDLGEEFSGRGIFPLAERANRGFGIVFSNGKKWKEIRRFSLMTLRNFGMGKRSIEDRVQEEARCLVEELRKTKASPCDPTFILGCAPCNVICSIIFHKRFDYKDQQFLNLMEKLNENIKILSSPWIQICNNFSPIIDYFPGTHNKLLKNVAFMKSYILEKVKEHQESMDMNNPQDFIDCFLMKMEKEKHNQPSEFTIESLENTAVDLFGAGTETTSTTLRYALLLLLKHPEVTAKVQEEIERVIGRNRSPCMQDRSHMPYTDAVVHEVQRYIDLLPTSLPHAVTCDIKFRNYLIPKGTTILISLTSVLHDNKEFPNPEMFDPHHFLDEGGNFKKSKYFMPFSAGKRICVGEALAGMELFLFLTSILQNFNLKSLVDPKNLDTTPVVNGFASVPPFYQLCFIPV
Chain of rCYP3A4 (P08684 whole entry): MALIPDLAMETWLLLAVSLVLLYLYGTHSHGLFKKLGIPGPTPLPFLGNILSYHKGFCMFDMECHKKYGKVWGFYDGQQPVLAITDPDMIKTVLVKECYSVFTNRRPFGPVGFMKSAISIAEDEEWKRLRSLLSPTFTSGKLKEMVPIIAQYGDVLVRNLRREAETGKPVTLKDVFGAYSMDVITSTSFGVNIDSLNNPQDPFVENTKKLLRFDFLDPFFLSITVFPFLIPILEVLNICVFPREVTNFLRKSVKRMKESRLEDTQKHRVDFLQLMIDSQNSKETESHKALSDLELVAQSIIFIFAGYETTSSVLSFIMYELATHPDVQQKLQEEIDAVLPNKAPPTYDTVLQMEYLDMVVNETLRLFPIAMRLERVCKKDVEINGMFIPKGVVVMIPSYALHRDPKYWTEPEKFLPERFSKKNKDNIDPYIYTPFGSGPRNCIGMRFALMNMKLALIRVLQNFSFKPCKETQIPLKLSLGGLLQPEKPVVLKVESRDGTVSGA
Chain of rCYP2D6 (P10635 whole entry): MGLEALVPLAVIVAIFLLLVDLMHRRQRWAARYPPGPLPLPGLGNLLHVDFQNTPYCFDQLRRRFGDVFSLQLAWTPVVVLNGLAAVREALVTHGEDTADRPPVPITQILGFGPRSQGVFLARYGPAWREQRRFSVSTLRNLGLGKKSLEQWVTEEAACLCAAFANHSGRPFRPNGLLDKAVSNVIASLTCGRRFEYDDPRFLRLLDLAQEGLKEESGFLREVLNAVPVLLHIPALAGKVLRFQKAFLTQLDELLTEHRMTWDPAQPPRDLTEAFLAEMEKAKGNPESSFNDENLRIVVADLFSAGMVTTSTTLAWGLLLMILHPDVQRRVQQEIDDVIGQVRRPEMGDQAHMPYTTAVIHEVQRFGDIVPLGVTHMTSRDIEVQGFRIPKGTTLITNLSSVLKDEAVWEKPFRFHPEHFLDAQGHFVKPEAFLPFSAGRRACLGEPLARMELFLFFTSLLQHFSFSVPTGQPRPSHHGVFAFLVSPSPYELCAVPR

## C/C=C/C#CC#C/C=C/c1ccco1 [Atractylodin]
rCYP1A2; median (range)
  Median IC50 (Range) rCYP1A2: 90.6 (83.8–102.3) µg/ml
rCYP1A2; read-out: Median IC50 (Range) rCYP1A2, median (range)
  IC50: 497 µM
rCYP2C9; median (range)
  Median IC50 (Range) rCYP2C9: >125 µg/mL
rCYP2C9; read-out: Median IC50 (Range) rCYP2C9, median (range)
  IC50: > 686 µM
rCYP2D6; median (range)
  Median IC50 (Range) rCYP2D6: >125 µg/mL
rCYP2D6; read-out: Median IC50 (Range) rCYP2D6, median (range)
  IC50: > 686 µM
rCYP3A4; median (range)
  Median IC50 (Range) rCYP3A4: >125 µg/mL
rCYP3A4; read-out: Median IC50 (Range) rCYP3A4, median (range)
  IC50: > 686 µM
mCYP1A2 mRNA; 1 day, 100 mg/kg
  Fold-changes of mCYP1A2 mRNA levels: 1.6 fold
mCYP1A2 mRNA; 1 day, listed as Atactylodin, 100 mg/kg
  Fold-changes of mCYP1A2 mRNA levels: 1.60 fold
mCYP1A2 mRNA; 7 days, 100 mg/kg
  Fold-changes of mCYP1A2 mRNA levels: 1.2 fold
mCYP1A2 mRNA; 7 days, listed as Atactylodin, 100 mg/kg
  Fold-changes of mCYP1A2 mRNA levels: 1.20 fold
mCYP1A2 mRNA; 14 days
  Fold-changes of mCYP1A2 mRNA levels: 0.89 fold
mCYP1A2 mRNA; 21 days
  Fold-changes of mCYP1A2 mRNA levels: 0.71 fold

## C=C1CCC[C@]2(C)CC[C@@H](C(C)(C)O)C[C@@H]12 [β-Eudesmol]
rCYP1A2; Median IC50 (Range) rCYP1A2, median (range)
  IC50: > 562 µM
rCYP2C9; Median IC50 (Range) rCYP2C9, median (range)
  IC50: 533 µM
rCYP2D6; Median IC50 (Range) rCYP2D6, median (range)
  IC50: > 562 µM
rCYP3A4; Median IC50 (Range) rCYP3A4, median (range)
  IC50: 219 µM
mCYP1A2 mRNA; 1 day
  Fold-changes of mCYP1A2 mRNA levels: 2.63 fold
mCYP1A2 mRNA; 7 days
  Fold-changes of mCYP1A2 mRNA levels: 1.44 fold
mCYP1A2 mRNA; 14 days
  Fold-changes of mCYP1A2 mRNA levels: 1.37 fold
mCYP1A2 mRNA; 21 days
  Fold-changes of mCYP1A2 mRNA levels: 0.91 fold

— publication PMC10095747, “Modulatory Effects of Atractylodin and β-Eudesmol on Human Cytochrome P450 Enzymes: Potential Drug-Drug Interactions” (Molecules, 2023)
